Measurements taken from ChEMBL document CHEMBL1201862, “PubChem BioAssay data set” (2004).
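Protocol summary: plate cells (96-well), add compound at 5 concentrations, incubate 48 h, interpolate endpoints linearly. GI50 = concentration required for 50% inhibition of growth.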 Active and inactive are the calls of the source. Cut-off read from the data, not from the text of the source: active = GI50 up to about 1.1 µM and inactive = higher.

Tests used:
Assay in all cases: inhibition of tumour cell growth, NCI panel, 48 h
OVCAR-3 = tested on: OVCAR-3
SN12C = tested on: SN12C
SF-295 = tested on: SF-295
SNB-75 = tested on: SNB-75
M14 = tested on: M14
LOX IMVI = tested on: LOX IMVI
U-251 = tested on: U-251
HOP-62 = tested on: HOP-62
HCT-116 = tested on: HCT-116
A498 = tested on: A498
SW-620 = tested on: SW-620
IGROV-1 = tested on: IGROV-1
HT-29 = tested on: HT-29
SK-OV-3 = tested on: SK-OV-3
CCRF-CEM = tested on: CCRF-CEM
RXF 393 = tested on: RXF 393
OVCAR-5 = tested on: OVCAR-5
SR = tested on: SR

Measured: GI50

COc1ccc2c3c(c(C(=O)c4ccccc4)oc13)CCC2
inactive: OVCAR-3 > 100 µM | SN12C > 100 µM | SF-295 > 100 µM | SNB-75 81.5 µM | M14 > 100 µM | LOX IMVI > 100 µM | U-251 > 100 µM | HOP-62 > 100 µM | HCT-116 > 100 µM | A498 > 100 µM | SW-620 > 100 µM | IGROV-1 > 100 µM | HT-29 79.4 µM | SK-OV-3 > 100 µM | CCRF-CEM > 100 µM | RXF 393 17.5 µM

Cc1ccc(C)c2c1CCc1cc3ccccc3nc1-2
inactive: OVCAR-3 > 100 µM | SN12C > 100 µM | SF-295 > 100 µM | SNB-75 98.6 µM | M14 > 100 µM | U-251 > 100 µM | OVCAR-5 > 100 µM | HOP-62 > 100 µM | HCT-116 > 100 µM | A498 > 100 µM | SW-620 > 100 µM | IGROV-1 > 100 µM | HT-29 > 100 µM | SK-OV-3 > 100 µM | CCRF-CEM > 100 µM

Cc1ccc(S(=O)(=O)N2CCC2c2ccccc2)cc1 (stereo not given)
inactive: OVCAR-3 81.5 µM | SN12C > 100 µM | SF-295 74.6 µM | SNB-75 72.6 µM | M14 > 100 µM | LOX IMVI > 100 µM | U-251 > 100 µM | HOP-62 > 100 µM | HCT-116 52.8 µM | A498 > 100 µM | SW-620 > 100 µM | IGROV-1 > 100 µM | HT-29 > 100 µM | SK-OV-3 > 100 µM | CCRF-CEM 80.4 µM | RXF 393 84.5 µM

Cn1c(C2CC(C)(C)c3c2c2ccccc2n3C)cc2ccccc21 (stereo not given)
inactive: OVCAR-3 64.6 µM | SN12C > 304 µM | SF-295 195 µM | LOX IMVI > 304 µM | U-251 > 304 µM | OVCAR-5 > 304 µM | HOP-62 > 304 µM | HCT-116 30.1 µM | SR > 304 µM | SW-620 > 304 µM | IGROV-1 225 µM | HT-29 > 304 µM | SK-OV-3 > 304 µM | CCRF-CEM > 304 µM | RXF 393 > 304 µM

O=C1C2=C(c3ccccc31)C(c1ccc(F)cc1)N1C(=O)CCSC1=N2 (stereo not given)
inactive: OVCAR-3 > 100 µM | SN12C 42.9 µM | SF-295 > 100 µM | SNB-75 24.4 µM | M14 > 100 µM | U-251 > 100 µM | OVCAR-5 > 100 µM | HOP-62 > 100 µM | HCT-116 95.7 µM | A498 > 100 µM | SW-620 > 100 µM | IGROV-1 > 100 µM | HT-29 > 100 µM | SK-OV-3 > 100 µM | CCRF-CEM 89.5 µM

CC[P+](C)(Cc1ccccc1)c1ccccc1.O=C(OC(C(=O)[O-])C(OC(=O)c1ccccc1)C(=O)O)c1ccccc1 (stereo not given)
inactive: SN12C > 100 µM | SF-295 > 100 µM | SNB-75 > 100 µM | M14 > 100 µM | LOX IMVI > 100 µM | U-251 > 100 µM | OVCAR-5 > 100 µM | HOP-62 > 100 µM | IGROV-1 > 100 µM | HT-29 > 100 µM | SK-OV-3 > 100 µM | RXF 393 > 100 µM

CC/C=C1\N=C(c2ccc(Cl)cc2)OC1=O
inactive: OVCAR-3 > 100 µM | SN12C > 100 µM | SF-295 > 100 µM | SNB-75 > 100 µM | M14 > 100 µM | LOX IMVI > 100 µM | OVCAR-5 > 100 µM | HOP-62 > 100 µM | A498 > 100 µM | SW-620 > 100 µM | IGROV-1 > 100 µM | HT-29 > 100 µM | SK-OV-3 > 100 µM | CCRF-CEM > 100 µM | RXF 393 > 100 µM

COc1cc2ccnc(C#N)c2cc1OCc1ccccc1
inactive: OVCAR-3 > 100 µM | SN12C > 100 µM | SF-295 32.1 µM | SNB-75 21.9 µM | M14 > 100 µM | U-251 48 µM | OVCAR-5 > 100 µM | HOP-62 35.6 µM | HCT-116 > 100 µM | A498 87.1 µM | SW-620 > 100 µM | HT-29 > 100 µM | CCRF-CEM > 100 µM

COc1cc(/C=C/C(C)=O)ccc1OP(=O)(O)O
inactive: OVCAR-3 > 100 µM | SN12C > 100 µM | SF-295 > 100 µM | SNB-75 > 100 µM | M14 > 100 µM | LOX IMVI > 100 µM | U-251 > 100 µM | OVCAR-5 > 100 µM | HOP-62 > 100 µM | HCT-116 > 100 µM | A498 > 100 µM | SW-620 > 100 µM | IGROV-1 > 100 µM | HT-29 > 100 µM | SK-OV-3 > 100 µM | RXF 393 > 100 µM

Nc1nc(SCCNC(=O)CCc2ccc(O)cc2)nc2c1ncn2C1OC(CO)C(O)C1O (stereo not given)
inactive: OVCAR-3 > 203 µM | SN12C > 203 µM | SF-295 > 203 µM | SNB-75 > 203 µM | M14 > 203 µM | LOX IMVI > 203 µM | U-251 > 203 µM | OVCAR-5 > 203 µM | HOP-62 > 203 µM | HCT-116 > 203 µM | SR > 203 µM | A498 > 203 µM | SW-620 > 203 µM | IGROV-1 > 203 µM | HT-29 > 203 µM | SK-OV-3 > 203 µM | CCRF-CEM > 203 µM
